Key:
[1] = system: position 37 of GFP; assay: Fidelity of unnatural amino acid incorporation by nano-RP LC/MS/MS and ESI TOF-MS; settings: for wild type peptide signals in tandem MS of mutant GFP: nano-RP LC/MS/MS of tryptic fragments, T-REx CHO cells
Excerpt: To further characterize GFP-pMpa, the mutant protein was expressed in T-REx™ CHO cells transiently transfected with both pSWAN-pMpaRS and pSWAN-GFP37TAG. The protein was purified using an anti-myc antibody agarose column and then separated by SDS-PAGE. The GFP-pMpa band from the SDS-PAGE gel was digested with trypsin and analyzed by nanoscale reversed-phase liquid chromatography/mass spectrometry/mass spectrometry (nano-RP LC/MS/MS). In parallel, wild type GFP was purified from cells transfected with pcDNA4-GFP and subjected to the same analysis.
Proteolysis of affinity purified proteins (performed for wild-type and pBpa samples) was carried out by overnight incubation of proteins at 37° C. with sequencing-grade modified trypsin (Promega) using a substrate/enzyme ratio of 10:1 (wt/wt) based on the estimated protein concentration in 100 mM triethylammonium bicarbonate buffer (pH 8.5). In-gel digestions (performed for pMpa, pAzpa, pApa, and pPpa samples) were performed according to a modified EMBL procedure (see the website for EMBL, Heidelberg, Germany, Bioanalytical Research Group). Briefly, gel slices were excised to approximately 1 mm×1 mm cubes, washed for 5 minutes with water, 15 minutes with acetonitrile, and dried in a vacuum centrifuge before being rehydrated at 0° C. for 30 minutes with 12.5 ng/μl of sequencing-grade modified trypsin in 50 mM triethylammonium bicarbonate buffer (pH 8.5). Excess buffer was removed and 20 μl of 50 mM triethylammonium bicarbonate buffer (pH 8.5) was added to the gel slices before incubating at 37° C. overnight. Peptides were extracted from the gel slices as described in the protocol.
Nano-RP LC/MS/MS was performed with an HPLC pump, autosampler (Agilent Technologies, Palo Alto, Calif.), and an LTQ Orbitrap hybrid mass spectrometer (ThermoElectron, San Jose, Calif.). Tryptic digests were loaded with a pressure bomb onto a 75 μm i.d. precolumn packed with 4 cm of 5-μm Monitor C18 particles (Column Engineering, Ontario, Calif.) at a flow rate of approximately 2 μl/min. The precolumn was then connected to the HPLC pump and after several minutes of washing with solvent A the analytical column with integrated emitter tip (360 μm O.D.×75 μm i.d; 10 cm of 5 μM C18, ˜5-μm tip) was connected in series. The chromatographic profile was from 100% solvent A (0.1% aqueous acetic acid) to 50% solvent B (0.1% acetic acid in acetonitrile) in 40 min; the flow rate through the analytical column was ca. 100 nl/min.
For data-dependent experiments, the mass spectrometer was programmed to first record a high-resolution Orbitrap scan then a full-scan ion trap spectrum (m/z 500-2,000). This was followed by 10 data-dependent MS/MS scans (relative collision energy=35%; 3-Da isolation window) triggered of the ion-trap scan and finally two targeted MS/MS scans. The first targeted MS/MS scan was set to isolate and fragment the doubly charged precursor ion of the predicted unnatural amino acid modified peptide
at m/z 752.3. The raw data were searched against the MSDB database using MASCOT (Matrixscience, London, UK) for protein identification and to find the scans containing the target peptides with the unnatural amino acids as variable modification. To estimate fidelity at Y*37 of GFP-pMpa, single ion chromatograms (doubly charged precursor ions at m/z 752.3 for the wt and 759.3 for pMpa) and selected ion chromatograms (y9, y11, and y12) were integrated using the Xcalibur software package (ThermoElectron, San Jose, Calif.).
Intact protein mass spectra were acquired on an automated LC/MS system (Waters, Milford, Mass.) consisting of a capillary LC with auto-sampler and a QTOF2 mass spectrometer. GFP-pMpa (0.1 mg/ml) was loaded onto a reversed-phase protein Captrap (Michrom Bioresources, Auburn, Calif.) for desalting with 0.1% acetic acid in water and eluted with 80% acetonitrile/0.1% acetic acid at 5 μl/min into the ESI source of the mass spectrometer. […]

[2] = system: amber codon in GFP37TAG in T-REx CHO cells; assay: Amber suppression of GFP37TAG by BstRNACUA^Tyr/EcTyrRS variants, Western blot of full-length GFP; type: cell-based, Chinese hamster; settings: 8 mM in media, 24 hours
Method: (§1) The ability of the six EcTyrRS variants together with BstRNACUA^Tyr to suppress the amber codon in GFP37TAG was then tested in the presence and absence of unnatural amino acids in the growth media. Transient transfection of cells with plasmids was carried out as described for wild type EcTyrRS. Six hours after transfection, the media were replaced by the fresh media containing 1 μg/ml tetracycline and supplemented with the corresponding unnatural amino acid (pMpa, 10 mM; pApa, 10 mM; pBpa, 1 mM; plpa, 8 mM; pAzpa, 5 mM; or pPpa, 1 mM). Cells were then grown 24 hours for T-REx™ CHO cell lines and 48 hours for T-REx™ 293 cell lines before harvesting. In both T-REx™ CHO and 293 cells, the expression of full length GFP37TAG was dependent upon the presence of unnatural amino acids in the growth media as indicated in FIG. 2 and FIG. 3. […]
(§2) For Western blot analysis, harvested cells were lysed in RIPA buffer (Upstate Biotechnology/Millipore) with a 1:100 dilution of protease inhibitor cocktail (Sigma). […] Chemiluminescence was then detected with PIERCE ECL Western Blotting substrate. For T-REx™ 293 cells, the membranes were probed with anti-His-HRP (Invitrogen™; 1:5000 dilution) and then detected with PIERCE ECL Western Blotting substrate.

[3] = system: amber codon in GFP37TAG in T-REx 293 cells; assay: as above; type: cell-based, human; settings: 8 mM in media, 48 hours
Method: as §1, §2

[4] = system: T-REx 293 cells; assay: Cellular toxicity of the unnatural amino acid in growth media; type: cell-based, human; settings: 8 mM in media

CC(=O)c1ccc(C[C@H](N)C(=O)O)cc1 [pApa, p-acetyl-L-phenylalanine]
wild type peptide signals in tandem MS of mutant GFP [1]: No wild type signals could be detected

[N-]=[N+]=Nc1ccc(C[C@H](N)C(=O)O)cc1 [pAzpa, p-azido-L-phenylalanine]
stability of the azido amino acid in mutant GFP seen by tandem MS ([1]; mutant GFP containing pAzpa): Most of pAzpa decays to pAmpa | wild type peptide signals in tandem MS of mutant GFP [1]: No wild type signals could be detected

N[C@@H](Cc1ccc(C(=O)c2ccccc2)cc1)C(=O)O [pBpa, p-benzoyl-L-phenylalanine]
wild type peptide signals in tandem MS of mutant GFP [1]: trace amount of the wild type peptide

COc1ccc(C[C@H](N)C(=O)O)cc1 [pMpa, p-methoxy-L-phenylalanine]
wild type GFP signals in intact protein ESI TOF-MS ([1]; affinity purified GFP-pMpa): No wild type GFP signals

C#CCOc1ccc(C[C@H](N)C(=O)O)cc1 [pPpa, p-propargyloxyphenylalanine]
wild type peptide signals in tandem MS of mutant GFP [1]: No wild type signals could be detected

N[C@@H](Cc1ccc(I)cc1)C(=O)O [plpa, p-iodo-L-phenylalanine]
expression level of GFP containing the unnatural amino acid [2]: low expression level | expression of GFP containing the unnatural amino acid [3]: no GFP expression | time until cells die (cellular toxicity) [4]: 6 h

— patent US9624485B2, “Genetic incorporation of unnatural amino acids into proteins in mammalian cells” (The Scripps Research Institute, priority 2006, dated 2017)
